According to US5561131A, “Defaunation method” (Mallinckrodt Veterinary, Inc., priority 1991, dated 1996):

How the values were obtained:
Sheep test: feed intake = type: in vivo
Procedure: (§1) In this trial the effect of defaunation by compounds 27, 30 and 37 (see Table 1) after 1 and 3 weeks were examined using penned sheep.
(§2) The compounds were each administered to two sheep as a single dose at 167 mg/kg body weight. Compositions containing each compound were prepared according to the method of Example 1. Sheep were penned and fed 1000 g/day of a chaffed oaten hay and Lucerne mixture (90/10). Protozoal and bacterial viabilities were monitored along with the feed intake of the sheep according to the methods taught in Examples 2, 3 and 7.

rumen ciliate protozoa [1] = assay: Protozoal reduction in sheep; type: in vivo; parameters: concentration or dose not given beside the values; details: one week after dosing, relative to predosing numbers
Procedure: Defaunation compositions were prepared according to the method of Example 1.
Prior to dosing of the compound, a sample of rumen liquor (200 ml) was withdrawn to establish basal numbers of protozoa.
The sample was collected using a stomach tube, inserted into the rumen via a rumen cannula (fistulated animals) or per esophagus (intact animals). After straining the sample was well mixed using a magnetic stirrer and a 0.5 ml sample was withdrawn and added to 49.5 ml of a crystal violet stain. Protozoa were counted using a microscope and a Hawksley counting chamber.
One week after administering the compound, another rumen liquor sample was collected (as described above) and examined for the presence of protozoa. Where rumen ciliate protozoa were undetectable, a reduction or inhibition value of 100% was recorded. In general, most compounds expressed a strong inhibitory effect on protozoal populations.

protozoa [2] = assay: Wool growth trial: protozoal number; type: in vivo; details: sheep, defaunated period, 167 mg/kg
Procedure: (§3) Seven sheep each were defaunated using a dose rate of 167 mg/kg. Compounds were administered by first mixing with 20 ml of ethanol and then with 200 ml of centrifuged rumen liquor. This solution was then administered via a flexible stomach tube directly into the rumen. The sheep were fed with a ration of 90% oaten chaff and 10% Lucerne chaff at a rate of 1000 g per day. The sheep were maintained in a defaunated state by their isolation from faunated sheep to prevent the possibility of refaunation. The sheep were allowed to adjust for 3 weeks after administering the compound before any wool growth measurements were taken.
(§4) At the start of the wool growth measurement period, a 10 cm square area of wool was removed from both sides of the sheep. After four weeks the same area was reclipped and the wool retained for scouring at the end of the trial.
(§5) The sheep then had protozoa introduced back into their rumen and were allowed to adjust for three weeks. Similarly, during the second four week period, the wool was clipped from the same patch area. The wool harvested during the two four week trial periods was then scoured of wool wax and extraneous material and weighed.

[3] = Wool growth in defaunated sheep; type: in vivo; details: sheep, 167 mg/kg
Procedure: as §3, §4, §5

rumen bacteria [4] = assay: Bacterial viability in sheep after administering defaunation compounds; type: in vivo; details: gas production one week after dosing vs pre-dosing
Procedure: In order to establish what effect the compounds had on the viability of rumen bacteria, a sample of rumen liquor was collected prior to dosing of the compound. The sample was withdrawn under vacuum using a pre-warmed tube inserted into the rumen through a rumen cannula. The sample was collected in a pre-warmed (39° C.) flask, gassed with carbon dioxide and covered. Two-pre-warmed 30 ml centrifuge tubes were then filled with well mixed rumen liquor and centrifuged at 2000 rpm for 5 minutes. Half the volume of each tube was then poured into another pre-warmed tube without disturbing the sediment. Three lots of 10 ml of this rumen liquor were then pipetted into 15 ml tubes which contained 10 μL of urea solution (40% w/v and 300 μL of glucose solution (50% w/v). The urea and glucose acted as substrate for the bacteria. The tubes were then gassed with carbon dioxide, stoppered and placed in a water bath at 39° C. After 10 minutes a 5 ml glass syringe was secured into the stoppers (through which a hypodermic needle had been inserted) and the gas collected for five hours and recorded.
This bacterial viability measure was then repeated one week after dosing with each of the compounds referred to in Table 1. Defaunation compositions were prepared according to the method of Example 1. The amount of gas produced was then compared with the pre-dosing level. The criterion for classifying post-dosing bacterial viability is shown below:
Poor--reduction in post-dosing gas production relative to pre-dosing levels.
OK--post-dosing gas production the same as pre-dosing levels.
Good--increase in post-dosing gas production relative to pre-dosing levels.

rumen ciliate protozoa [5] = assay: In vitro activity of defaunation compounds against rumen ciliate protozoa; type: cell-based; details: 39° C., anaerobic, 3 hours, tested at 50, 150, 250 and 500 ppm
Procedure: Compounds of Table 1 were tested for their toxicity against rumen ciliate protozoa by firstly isolating protozoa from rumen liquor collected from faunated animals. The rumen liquor was then centrifuged at 500 g for five minutes and the supernatant discarded. The protozoal-rich sediment was then reconstituted in McDougal's artificial saliva. Residual bacteria were suppressed by using a combination of two antibiotics at low concentration. Nitrogen and energy substrate was optimized for the protozoal preparation. At all times the protozoal preparation was maintained at 39° C. and kept anaerobic.
Sixty milligrams of each the compounds of Table 1 were dissolved in 1.2 ml of dimethyl sulphoxide and dispersed in triplicate to achieve a final concentration of 50, 150, 250 and 500 ppm. Ten milliliters of protozoal preparation was then added to each tube. After every second compound, control tubes were included which contained everything except for compound. The tubes, to which a 5 ml glass syringe was attached, were then incubated for 3 hours in a water bath at 39° C. The production of gas causes the syringe plunger to be displaced.
At the end of the incubation period, the volume of gas produced was recorded and the viability of the protozoa assessed visually using a microscope. The toxicity of the compounds to protozoa was assessed from both the reduction in gas produced relative to the control and by direct observation of the protozoa for movement of cilia.

[6] = Effect of defaunation compounds on feed intake of sheep; type: in vivo; details: after dosing vs pre-dosing intake
Procedure: Sheep were allowed a minimum of three weeks to adapt to their ration of 900 g of oaten chaff and 100 g of Lucerne chaff. The pre-dosing level of intake for each animal was established from the mean of five days intake immediately prior to dosing. Any effects of administering the compound on feed intake was then determined by measuring the level of feed intake after dosing.
The criteria of classifying the effect on food intake are shown below.
Poor--greater than 50% reduction in feed intake during the first week after dosing.
Fair--greater than 50% reduction in feed intake on the day following dosing but less then 50% reduction one week after dosing.
OK--transient drop in feed intake which is less than 50% on the day after dosing.
Good--No reduction in feed intake following dosing.

rumen bacteria [7] = assay: In vitro bacterial gas inhibition; type: cell-based; details: at the concentration known to kill protozoa
Procedure: Compounds of Table 1 were also tested for toxicity bacteria. This involved removing protozoa from rumen liquor by centrifugation at 2,000 g for 5 minutes and collecting the bacterial rich supernatant. Nitrogen and energy substrate was added to the bacterial preparation which was then dispensed in triplicate 10 ml volumes over the same range of compound concentrations (50, 150, 250 and 500 ppm.) referred to in Example 2. Control tubes were placed after every second compound to enable the inhibition of gas resulting from the compound to be assessed. […] It can be seen that these compounds are selective in their mode of action, in that they are more toxic to protozoa than bacteria.

protozoa [8] = assay: Sheep test: protozoal numbers; type: in vivo
Procedure: as §1, §2

rumen bacteria [9] = assay: Sheep test: bacterial gas production; type: in vivo
Procedure: as §1, §2

Structure (SMILES): Cc1ccc(Nc2nc(Cl)nc(Cl)n2)c(C)c1 [Compound 30, 2,4 dichloro-6-(2,4-dimethylanilino)-s-triazine]
- Feed Intake (Sheep test: feed intake; 1 week after 167 mg/kg): 625 g/day
- Feed Intake (Sheep test: feed intake; 3 weeks after 167 mg/kg): 740 g/day
- Feed Intake (Sheep test: feed intake; pre-dose (baseline)): 887 g/day
- Protozoal Reduction (rumen ciliate protozoa [1]): 100%
- Prot. Number (protozoa [2]): 0 per mL × 10^3
- Response To Defaun ([3]; clean wool growth defaunated vs refaunated): 14.6
- Clean Wool Growth ([3]; defaunated period, 4 weeks, per midside patch): 2.830 g
- Bacterial Viability (rumen bacteria [4]): Good
- Conc Required to Kill all Protozoa (rumen ciliate protozoa [5]): 150 ppm
- Feed Intake [6]: Okay (transient drop, less than 50% at day 2)
- Bact. Gas Inhibition at the conc. required to kill protozoa (rumen bacteria [7]): 33
- Protozoal Nos. (protozoa [8]; 1 week after 167 mg/kg): 0 per mL × 10^3
- Protozoal Nos. (protozoa [8]; 3 weeks after 167 mg/kg): 0 per mL × 10^3
- Protozoal Nos. (protozoa [8]; pre-dose (baseline)): 346 per mL × 10^3
- Bacterial gas production (rumen bacteria [9]; 1 week after 167 mg/kg): 1.9 M1 per 5 hr
- Bacterial gas production (rumen bacteria [9]; 3 weeks after 167 mg/kg): 4.6 M1 per 5 hr
- Bacterial gas production (rumen bacteria [9]; pre-dose (baseline)): 4.4 M1 per 5 hr
